This note sets out measurements from patent US4444786A, “Carbamate derivatives, insecticidal, miticidal or nematocidal compositions containing the same, and process for preparing the same” (priority 1981, dated 1984).

Data set [1] has as its system tobacco cutworm (Spodoptera litura). Kind of data set: Test Example 1: mortality of third-instar larvae of tobacco cutworm on cabbage, three days. The class given is in vivo. To be noted: 72 h, 3 days; for mortality at 100 ppm: 100 ppm active ingredient; for mortality at 200 ppm: 200 ppm active ingredient; for mortality at 400 ppm: 400 ppm active ingredient. Here is the method:
Ten third-instar larvae of tobacco cutworm (Spodoptera litura) were placed on a cabbage (one-month-old seedlings) planted in a pot, and a 50% emulsion of the compound to be tested was diluted to a specified concentration and applied to the leaves of the plant to fully wet them. The test compound of each specified concentration was tested on two pots.

For data set [2], the system named is house fly (Musca domestica). As to the kind of experiment: Test Example 4: local application to house fly, LD50 by Probit method. The class given is in vivo. To be noted: topical, 24 hours. Here is the method: The compound to be tested was dissolved in a predetermined amount of acetone. The solution was diluted to various concentrations and locally applied to house fly (Musca domestica).

A short description of data set [3]: Test Example 5: acute toxicity by oral administration against male mice. The settings on record: mouse, in vivo, seventh day, Litchfield-Wilcoxon method. The method, then: The compound to be tested was evaluated in terms of acute toxicity by oral administration against male mice.
The test system of data set [4] is green rice leafhopper (Nephotettix cincticeps). As to the kind of experiment: Test Example 2: mortality of female adults of green rice leafhopper on paddy rice, three days. The settings on record: 72 h, 3 days; for mortality at 200 ppm: 200 ppm active ingredient; for mortality at 400 ppm: 400 ppm active ingredient; for mortality at 800 ppm: 800 ppm active ingredient. Format: in vivo. Here is the method:
An emulsion of specified concentration was prepared from a 50% wettable powder of the compound to be tested and applied to the leaves of paddy rice (one-month-old seedlings) planted in a pot to fully wet the leaves. After air-drying the emulsion, the pot was covered with a net cage, into which 10 female adults of green rice leafhopper (Nephotettix cincticeps) were released. The compound of each specified concentration was tested on two pots.

In data set [1], `CCOC(=O)CCN(SN(C)C(=O)ON=C(C)SC)C1CCCCC1` [Example 7] showed a mortality at 100 ppm of 95%, a mortality at 200 ppm of 100% and a mortality at 400 ppm of 100%. The 50% lethal dose (LD50) in data set [2] was 18.3 mg/kg. The compound also had an LD50 at 168 h in data set [3] of 200 mg/kg. In data set [4], the mortality at 200 ppm was found to be 65%, the mortality at 400 ppm came out at 100% and the mortality at 800 ppm turned out to be 100%.
Consider `CCOC(=O)CCN(SN(C)C(=O)ON=C(C)SC)c1ccc(Cl)cc1` [Example 9], for which, in data set [1], the mortality at 100 ppm came to 50%, the mortality at 200 ppm was found to be 70% and the mortality at 400 ppm worked out at 100%. Also, the median lethal dose (LD50) in data set [2] is 14 mg/kg. Also, the LD50 at 168 h in data set [3] amounted to 250 mg/kg. In data set [4], the mortality at 200 ppm was determined as 70%, the mortality at 400 ppm was found to be 100% and the mortality at 800 ppm was 100%.
In data set [1], `CCOC(=O)CN(SN(C)C(=O)ON=C(C)SC)C(=O)CC` [Example 13] returned a mortality at 100 ppm of 75%, a mortality at 200 ppm of 90% and a mortality at 400 ppm of 100%. This compound returned an LD50 in data set [2] of 14.4 mg/kg. Further, the LD50 at 168 h in data set [3] is 200 mg/kg. In data set [4], the mortality at 200 ppm came to 75%, the mortality at 400 ppm was found to be 100% and the mortality at 800 ppm stood at 100%.
For `CCOC(=O)CCN(Cc1ccc(Cl)cc1)SN(C)C(=O)ON=C(C)SC` [Example 20], in data set [1], the mortality at 100 ppm worked out at 75%, the mortality at 200 ppm turned out to be 80% and the mortality at 400 ppm was 100%. For the same compound, the 50% lethal dose (LD50) in data set [2] worked out at 18.9 mg/kg. In data set [3], this compound had an LD50 at 168 h of 250 mg/kg. In data set [4], this compound had a mortality at 200 ppm of 80%, a mortality at 400 ppm of 100% and a mortality at 800 ppm of 100%.
As to `CCOC(=O)CCN(SN(C)C(=O)ON=C(C)SC)c1ccc(OC)cc1` [Example 19], in data set [1], the mortality at 100 ppm turned out to be 75%, the mortality at 200 ppm was determined as 80% and the mortality at 400 ppm worked out at 100%. In data set [2], this compound returned an LD50 of 20.1 mg/kg. The 50% lethal dose (LD50) at 168 h in data set [3] stood at 250 mg/kg. In data set [4], this compound returned a mortality at 200 ppm of 80%, a mortality at 400 ppm of 100% and a mortality at 800 ppm of 100%.
As for `CCOC(=O)CN(SN(C)C(=O)ON=C(C)SC)S(=O)(=O)c1ccc(C)cc1` [Example 14], in data set [1], the mortality at 100 ppm was determined as 60%, the mortality at 200 ppm worked out at 80% and the mortality at 400 ppm was found to be 100%. Further, in data set [2], the LD50 was determined as 33.3 mg/kg. The LD50 at 168 h in data set [3] was found to be 250 mg/kg. In data set [4], this compound gave a mortality at 200 ppm of 80%, a mortality at 400 ppm of 100% and a mortality at 800 ppm of 100%.
For `CCOC(=O)CCN(SN(C)C(=O)ON=C(C)SC)c1cccc(C)c1` [Example 10], in data set [1], the mortality at 100 ppm came to 60%, the mortality at 200 ppm was determined as 85% and the mortality at 400 ppm was determined as 100%. Moreover, in data set [2], the LD50 worked out at 29.5 mg/kg. In data set [3], this compound showed an LD50 at 168 h of 250 mg/kg. In data set [4], this compound showed a mortality at 200 ppm of 90%, a mortality at 400 ppm of 100% and a mortality at 800 ppm of 100%.
In data set [1], `CCCCCCN(CCC(=O)OCC)SN(C)C(=O)ON=C(C)SC` [Example 16] yielded a mortality at 100 ppm of 70%, a mortality at 200 ppm of 80% and a mortality at 400 ppm of 100%. This compound also registered an LD50 in data set [2] of 32.5 mg/kg. This compound showed a 50% lethal dose (LD50) at 168 h in data set [3] of 300 mg/kg. In data set [4], this compound came in with a mortality at 200 ppm of 75%, a mortality at 400 ppm of 100% and a mortality at 800 ppm of 100%.
As for `CCCN(CCC(=O)OCC)SN(C)C(=O)ON=C(C)SC` [Example 4], in data set [1], the mortality at 100 ppm was 100%, the mortality at 200 ppm was 100% and the mortality at 400 ppm came out at 100%. Also, the median lethal dose (LD50) in data set [2] was found to be 11 mg/kg. Also, in data set [3], the LD50 at 168 h was 150 mg/kg. In data set [4], this compound came in with a mortality at 200 ppm of 95%, a mortality at 400 ppm of 100% and a mortality at 800 ppm of 100%.
Regarding `CCCCN(CCC(=O)OC)SN(C)C(=O)ON=C(C)SC` [Example 5], in data set [1], the mortality at 100 ppm is 100%, the mortality at 200 ppm is 100% and the mortality at 400 ppm was found to be 100%. The compound also displayed an LD50 in data set [2] of 5 mg/kg. The compound also registered an LD50 at 168 h in data set [3] of 150 mg/kg. Besides, in data set [4], the mortality at 200 ppm was 95%, the mortality at 400 ppm worked out at 100% and the mortality at 800 ppm is 100%.
As for `CCOC(=O)CCN(Cc1ccccc1)SN(C)C(=O)ON=C(C)SC` [Example 8], in data set [1], the mortality at 100 ppm came out at 100%, the mortality at 200 ppm was 100% and the mortality at 400 ppm was 100%. In addition, the LD50 in data set [2] is 35.2 mg/kg. Moreover, the 50% lethal dose (LD50) at 168 h in data set [3] came out at 250 mg/kg. In data set [4], the mortality at 200 ppm was 75%, the mortality at 400 ppm was determined as 100% and the mortality at 800 ppm is 100%.
With `CCOC(=O)CCN(CCC(=O)OCC)SN(C)C(=O)ON=C(C)SC` [Example 2, S-methyl N-[{N-methyl-N-(N,N-bis(ethoxycarbonylethyl)aminosulfenyl)carbamoyl}oxy]thioacetamidate], in data set [1], the mortality at 100 ppm is 75%, the mortality at 200 ppm was determined as 100% and the mortality at 400 ppm worked out at 100%. Moreover, in data set [2], the LD50 was 23 mg/kg. The compound also gave an LD50 at 168 h in data set [3] of 300 mg/kg. In data set [4], this compound displayed a mortality at 200 ppm of 60%, a mortality at 400 ppm of 95% and a mortality at 800 ppm of 100%.
For `CCCCC(CC)COC(=O)CCN(SN(C)C(=O)ON=C(C)SC)C(C)C` (stereo not shown) [Example 17], in data set [1], the mortality at 100 ppm is 50%, the mortality at 200 ppm stood at 70% and the mortality at 400 ppm worked out at 100%. In data set [2], this compound yielded a 50% lethal dose (LD50) of 42.4 mg/kg. For the same compound, the LD50 at 168 h in data set [3] turned out to be 300 mg/kg. In data set [4], this compound returned a mortality at 200 ppm of 75%, a mortality at 400 ppm of 90% and a mortality at 800 ppm of 100%.
`CCOC(=O)CN(CC(=O)OCC)SN(C)C(=O)ON=C(C)SC` [Example 11]: in data set [1], the mortality at 100 ppm worked out at 45%, the mortality at 200 ppm was 75% and the mortality at 400 ppm is 100%. In data set [2], this compound gave a 50% lethal dose (LD50) of 47.3 mg/kg. The same compound returned a 50% lethal dose (LD50) at 168 h in data set [3] of 300 mg/kg. In data set [4], this compound displayed a mortality at 200 ppm of 60%, a mortality at 400 ppm of 80% and a mortality at 800 ppm of 100%.
In data set [1], `CCOC(=O)CCN(CC(C)C)SN(C)C(=O)ON=C(C)SC` [Example 6] yielded a mortality at 100 ppm of 70%, a mortality at 200 ppm of 95% and a mortality at 400 ppm of 100%. Further, the 50% lethal dose (LD50) in data set [2] turned out to be 7.6 mg/kg. The LD50 at 168 h in data set [3] turned out to be 170 mg/kg. In data set [4], this compound registered a mortality at 200 ppm of 80%, a mortality at 400 ppm of 90% and a mortality at 800 ppm of 100%.
For `CCCCOC(=O)CCN(SN(C)C(=O)ON=C(C)SC)C(C)C` [Example 15], in data set [1], the mortality at 100 ppm is 75%, the mortality at 200 ppm worked out at 95% and the mortality at 400 ppm was determined as 100%. Also, the 50% lethal dose (LD50) in data set [2] was determined as 21.3 mg/kg. In data set [3], this compound displayed an LD50 at 168 h of 280 mg/kg. In data set [4], this compound yielded a mortality at 200 ppm of 80%, a mortality at 400 ppm of 100% and a mortality at 800 ppm of 100%.
For `CCOC(=O)CCN(SN(C)C(=O)ON=C(C)SC)C(C)C` [Example 1, S-methyl N-[{N-methyl-N-(N-isopropyl-N-ethoxycarbonylethylaminosulfenyl)carbamoyl}oxy]thioacetamidate], in data set [1], the mortality at 100 ppm was 85%, the mortality at 200 ppm is 90% and the mortality at 400 ppm is 100%. The same compound registered an LD50 in data set [2] of 16 mg/kg. The compound further returned an LD50 at 168 h in data set [3] of 150 mg/kg. In data set [4], this compound showed a mortality at 200 ppm of 60%, a mortality at 400 ppm of 80% and a mortality at 800 ppm of 100%.
In data set [1], `CCCCN(CC(=O)OCC)SN(C)C(=O)ON=C(C)SC` [Example 3] came in with a mortality at 100 ppm of 100%, a mortality at 200 ppm of 100% and a mortality at 400 ppm of 100%. The median lethal dose (LD50) in data set [2] was found to be 8.5 mg/kg. In data set [3], the LD50 at 168 h was 170 mg/kg. In data set [4], this compound returned a mortality at 200 ppm of 80%, a mortality at 400 ppm of 100% and a mortality at 800 ppm of 100%.
Regarding `CCOC(=O)CN(SN(C)C(=O)ON=C(C)SC)C(=O)OCC` [Example 12], in data set [1], the mortality at 100 ppm was 100%, the mortality at 200 ppm was found to be 100% and the mortality at 400 ppm turned out to be 100%. In data set [2], this compound gave an LD50 of 28.7 mg/kg. The compound further displayed a 50% lethal dose (LD50) at 168 h in data set [3] of 200 mg/kg. In data set [4], this compound gave a mortality at 200 ppm of 80%, a mortality at 400 ppm of 100% and a mortality at 800 ppm of 100%.
As to `CCCCCCCCN(CCC(=O)OCC)SN(C)C(=O)ON=C(C)SC` [Example 18], in data set [1], the mortality at 100 ppm was determined as 60%, the mortality at 200 ppm came out at 75% and the mortality at 400 ppm was 100%. Besides, in data set [2], the 50% lethal dose (LD50) worked out at 35.6 mg/kg. Also, the 50% lethal dose (LD50) at 168 h in data set [3] was 270 mg/kg. In data set [4], the mortality at 200 ppm turned out to be 75%, the mortality at 400 ppm is 90% and the mortality at 800 ppm was 100%.

The mortality is the share of the test organisms that died. A lower mortality goes with more survivors. A word on the LD50: it is the dose expected to kill half of the subjects tested. High values mean lower toxicity, low ones greater toxicity.
